Measured values taken from ChEMBL document CHEMBL5724806, “Unraveling interindividual differences and functional consequences of gut microbial metabolism of immunosuppressants” (2024).

Columns and labels:
Format in all cases: ADME
[1] = (§1) The drug is tested on Streptococcus sanguinis strain: DSM20567 for biotransformation under anaerobic condition. The drug concentrations were measured over 6 timepoints collected between 0 and 12 hours of incubation by liquid-chromatography-coupled mass spectrometry (LC–MS); design: dose 5 uM, timepoint 0, 1.5, 3, 6, 9, 12 hours; settings: 5 µM
[2] = as §1, with “the gut metagenome community of T-02 with ENA study accession number: PRJEB31790” for “Streptococcus sanguinis strain: DSM20567”, “7” for “6”; design: dose 5 uM, timepoint 0, 0.75, 1.5, 3, 6, 9, 12 hours; settings: 5 µM
[3] = (§2) The drug is tested on the gut metagenome community of T-02 with ENA study accession number: PRJEB31790 for biotransformation under microaerobic condition. The drug concentrations were measured over 7 timepoints collected between 0 and 12 hours of incubation by liquid-chromatography-coupled mass spectrometry (LC–MS); design: dose 5 uM, timepoint 0, 0.75, 1.5, 3, 6, 9, 12 hours; settings: 5 µM
[4] = The drug is tested on Streptococcus anginosus strain: DSM20563 for biotransformation under microaerobic condition. The drug concentrations were measured over 6 timepoints collected between 0 and 12 hours of incubation by liquid-chromatography-coupled mass spectrometry (LC–MS); design: dose 5 uM, timepoint 0, 1.5, 3, 6, 9, 12 hours; settings: 5 µM
[5] = The drug is tested on Lactobacillus paracasei strain: ATCC27092 for biotransformation under anaerobic condition. The drug concentrations were measured over 6 timepoints collected between 0 and 12 hours of incubation by liquid-chromatography-coupled mass spectrometry (LC–MS); design: dose 5 uM, timepoint 0, 1.5, 3, 6, 9, 12 hours; settings: lacticaseibacillus paracasei, 5 µM
[6] = as §2, with “A-02” for “T-02”, “anaerobic” for “microaerobic”; design: dose 5 uM, timepoint 0, 0.75, 1.5, 3, 6, 9, 12 hours; settings: 5 µM
[7] = The drug is tested on Lactobacillus paracasei strain: ATCC27092 for biotransformation under microaerobic condition. The drug concentrations were measured over 6 timepoints collected between 0 and 12 hours of incubation by liquid-chromatography-coupled mass spectrometry (LC–MS); design: dose 5 uM, timepoint 0, 1.5, 3, 6, 9, 12 hours; settings: lacticaseibacillus paracasei, 5 µM
[8] = as §2, with “A-05” for “T-02”; design: dose 5 uM, timepoint 0, 0.75, 1.5, 3, 6, 9, 12 hours; settings: 5 µM
[9] = as §2, with “A-05” for “T-02”, “anaerobic” for “microaerobic”; design: dose 5 uM, timepoint 0, 0.75, 1.5, 3, 6, 9, 12 hours; settings: 5 µM
[10] = The drug is tested on Streptococcus salivarius strain: DSM20560 for biotransformation under anaerobic condition. The drug concentrations were measured over 6 timepoints collected between 0 and 12 hours of incubation by liquid-chromatography-coupled mass spectrometry (LC–MS); design: dose 5 uM, timepoint 0, 1.5, 3, 6, 9, 12 hours; settings: 5 µM
[11] = as §2, with “A-01” for “T-02”, “anaerobic” for “microaerobic”; design: dose 5 uM, timepoint 0, 0.75, 1.5, 3, 6, 9, 12 hours; settings: 5 µM
[12] = The drug is tested on Lactobacillus reuteri strain: DSM20016 for biotransformation under microaerobic condition. The drug concentrations were measured over 6 timepoints collected between 0 and 12 hours of incubation by liquid-chromatography-coupled mass spectrometry (LC–MS); design: dose 5 uM, timepoint 0, 1.5, 3, 6, 9, 12 hours; settings: limosilactobacillus reuteri, 5 µM
[13] = The drug is tested on Actinomyces graevenitzii strain: DSM15540 for biotransformation under microaerobic condition. The drug concentrations were measured over 6 timepoints collected between 0 and 12 hours of incubation by liquid-chromatography-coupled mass spectrometry (LC–MS); design: dose 5 uM, timepoint 0, 1.5, 3, 6, 9, 12 hours; settings: 5 µM
[14] = as §2, with “A-08” for “T-02”; design: dose 5 uM, timepoint 0, 0.75, 1.5, 3, 6, 9, 12 hours; settings: 5 µM
[15] = as §2, with “A-06” for “T-02”; design: dose 5 uM, timepoint 0, 0.75, 1.5, 3, 6, 9, 12 hours; settings: 5 µM
[16] = The drug is tested on Capnocytophaga ochracea strain: DSM7271 for biotransformation under anaerobic condition. The drug concentrations were measured over 6 timepoints collected between 0 and 12 hours of incubation by liquid-chromatography-coupled mass spectrometry (LC–MS); design: dose 5 uM, timepoint 0, 1.5, 3, 6, 9, 12 hours; settings: 5 µM
[17] = as §2, with “P-04” for “T-02”, “anaerobic” for “microaerobic”; design: dose 5 uM, timepoint 0, 0.75, 1.5, 3, 6, 9, 12 hours; settings: 5 µM
[18] = as §2, with “A-07” for “T-02”, “anaerobic” for “microaerobic”; design: dose 5 uM, timepoint 0, 0.75, 1.5, 3, 6, 9, 12 hours; settings: 5 µM
[19] = The drug is tested on Escherichia coli strain: DSM27469 for biotransformation under microaerobic condition. The drug concentrations were measured over 6 timepoints collected between 0 and 12 hours of incubation by liquid-chromatography-coupled mass spectrometry (LC–MS); design: dose 5 uM, timepoint 0, 1.5, 3, 6, 9, 12 hours; settings: 5 µM
[20] = as §2, with “T-05” for “T-02”; design: dose 5 uM, timepoint 0, 0.75, 1.5, 3, 6, 9, 12 hours; settings: 5 µM
[21] = as §2, with “A-01” for “T-02”; design: dose 5 uM, timepoint 0, 0.75, 1.5, 3, 6, 9, 12 hours; settings: 5 µM
[22] = The drug is tested on Lactobacillus gasseri strain: DSM20243 for biotransformation under anaerobic condition. The drug concentrations were measured over 6 timepoints collected between 0 and 12 hours of incubation by liquid-chromatography-coupled mass spectrometry (LC–MS); design: dose 5 uM, timepoint 0, 1.5, 3, 6, 9, 12 hours; settings: 5 µM
[23] = The drug is tested on Streptococcus mitis strain: DSM12643 for biotransformation under microaerobic condition. The drug concentrations were measured over 6 timepoints collected between 0 and 12 hours of incubation by liquid-chromatography-coupled mass spectrometry (LC–MS); design: dose 5 uM, timepoint 0, 1.5, 3, 6, 9, 12 hours; settings: 5 µM
[24] = The drug is tested on Gemella morbillorum strain: DSM20572 for biotransformation under anaerobic condition. The drug concentrations were measured over 6 timepoints collected between 0 and 12 hours of incubation by liquid-chromatography-coupled mass spectrometry (LC–MS); design: dose 5 uM, timepoint 0, 1.5, 3, 6, 9, 12 hours; settings: 5 µM
[25] = as §2, with “P-02” for “T-02”, “anaerobic” for “microaerobic”; design: dose 5 uM, timepoint 0, 0.75, 1.5, 3, 6, 9, 12 hours; settings: 5 µM
[26] = as §2, with “T-03” for “T-02”, “anaerobic” for “microaerobic”; design: dose 5 uM, timepoint 0, 0.75, 1.5, 3, 6, 9, 12 hours; settings: 5 µM
[27] = The drug is tested on Lactobacillus reuteri strain: DSM20016 for biotransformation under anaerobic condition. The drug concentrations were measured over 6 timepoints collected between 0 and 12 hours of incubation by liquid-chromatography-coupled mass spectrometry (LC–MS); design: dose 5 uM, timepoint 0, 1.5, 3, 6, 9, 12 hours; settings: limosilactobacillus reuteri, 5 µM
[28] = The drug is tested on Faecalibacterium prausnitzii strain: DSM17677 for biotransformation under anaerobic condition. The drug concentrations were measured over 6 timepoints collected between 0 and 12 hours of incubation by liquid-chromatography-coupled mass spectrometry (LC–MS); design: dose 5 uM, timepoint 0, 1.5, 3, 6, 9, 12 hours; settings: faecalibacterium duncaniae, 5 µM
[29] = The drug is tested on Actinomyces naeslundi strain: DSM43013 for biotransformation under microaerobic condition. The drug concentrations were measured over 6 timepoints collected between 0 and 12 hours of incubation by liquid-chromatography-coupled mass spectrometry (LC–MS); design: dose 5 uM, timepoint 0, 1.5, 3, 6, 9, 12 hours; settings: actinomyces naeslundii, 5 µM
[30] = The drug is tested on Bifidobacterium adolescentis strain: DSM20083 for biotransformation under anaerobic condition. The drug concentrations were measured over 6 timepoints collected between 0 and 12 hours of incubation by liquid-chromatography-coupled mass spectrometry (LC–MS); design: dose 5 uM, timepoint 0, 1.5, 3, 6, 9, 12 hours; settings: 5 µM
[31] = as §2, with “P-01” for “T-02”, “anaerobic” for “microaerobic”; design: dose 5 uM, timepoint 0, 0.75, 1.5, 3, 6, 9, 12 hours; settings: 5 µM

With `C[C@H]1C[C@@H]2[C@H]([C@@H](O)C[C@@]3(C)[C@H]2CC[C@]3(O)C(=O)CO)[C@@]2(C)C=CC(=O)C=C12` [METHYLPREDNISOLONE] the “Bacterial Biotransformation” value [1] was “Compound NOT metabolized”, the “Bacterial Biotransformation” value [2] was “Compound metabolized” and the “Bacterial Biotransformation” value [3] was “Compound metabolized”. For the same molecule, the “Bacterial Biotransformation” value [4] was “Compound NOT metabolized”, the “Bacterial Biotransformation” value [5] was “Compound NOT metabolized” and the “Bacterial Biotransformation” value [6] was “Compound metabolized”. The “Bacterial Biotransformation” value [7] was “Compound NOT metabolized”, the “Bacterial Biotransformation” value [8] was “Compound metabolized” and the “Bacterial Biotransformation” value [9] was “Compound metabolized”. For the same molecule, the “Bacterial Biotransformation” value [10] was “Compound NOT metabolized”, the “Bacterial Biotransformation” value [11] was “Compound metabolized” and the “Bacterial Biotransformation” value [12] was “Compound NOT metabolized”. For the same molecule, the “Bacterial Biotransformation” value [13] was “Compound NOT metabolized”, the “Bacterial Biotransformation” value [14] was “Compound metabolized” and the “Bacterial Biotransformation” value [15] was “Compound metabolized”. The “Bacterial Biotransformation” value [16] was “Compound NOT metabolized”, the “Bacterial Biotransformation” value [17] was “Compound metabolized” and the “Bacterial Biotransformation” value [18] was “Compound metabolized”. The “Bacterial Biotransformation” value [19] was “Compound NOT metabolized”, the “Bacterial Biotransformation” value [20] was “Compound metabolized” and the “Bacterial Biotransformation” value [21] was “Compound metabolized”. The “Bacterial Biotransformation” value [22] was “Compound NOT metabolized”, the “Bacterial Biotransformation” value [23] was “Compound NOT metabolized” and the “Bacterial Biotransformation” value [24] was “Compound NOT metabolized”. The “Bacterial Biotransformation” value [25] was “Compound metabolized”, the “Bacterial Biotransformation” value [26] was “Compound NOT metabolized” and the “Bacterial Biotransformation” value [27] was “Compound NOT metabolized”. For the same molecule, the “Bacterial Biotransformation” value [28] was “Compound NOT metabolized”, the “Bacterial Biotransformation” value [29] was “Compound NOT metabolized” and the “Bacterial Biotransformation” value [30] was “Compound NOT metabolized”. For the same molecule, the “Bacterial Biotransformation” value [31] was “Compound metabolized”.
